# Active and inactive are the calls of the source. The calls are words filed in the database; no cut-off is given here.
# Columns and labels:
# [1] = molecular target: DNA topoisomerase 1 (Homo sapiens) (UniProt P11387); assay: Inhibition of recombinant human DNA topoisomerase 1-mediated relaxation of supercoiled pHOT DNA at 25 to 50 uM after 45 mins by agarose gel electrophoresis
# [2] = Cytotoxicity against human NCI60 cells; assay type: functional
# Homo sapiens = species on record: Homo sapiens; assay: Inhibition of telomerase (unknown origin) at 10 uM TRAP assay
# CAKI-1 = assay: Cytotoxicity against human CAKI-1 cells at 10 uM after 48 hrs by sulforhodamine B assay relative to control; assay type: functional
# MDA-MB-468 = assay: Cytotoxicity against human MDA-MB-468 cells at 10 uM after 48 hrs by sulforhodamine B assay relative to control; assay type: functional
# T47D = assay: Cytotoxicity against human T47D cells at 10 uM after 48 hrs by sulforhodamine B assay relative to control; assay type: functional
# BT-549 = assay: Cytotoxicity against human BT549 cells at 10 uM after 48 hrs by sulforhodamine B assay relative to control; assay type: functional
# [3] = Cytotoxicity against human Hs 578T cells at 10 uM after 48 hrs by sulforhodamine B assay relative to control; assay type: functional
# MDA-MB-231 = assay: Cytotoxicity against human MDA-MB-231 cells at 10 uM after 48 hrs by sulforhodamine B assay relative to control; assay type: functional
# MCF7 = assay: Cytotoxicity against human MCF7 cells at 10 uM after 48 hrs by sulforhodamine B assay relative to control; assay type: functional
# DU-145 = assay: Cytotoxicity against human DU145 cells at 10 uM after 48 hrs by sulforhodamine B assay relative to control; assay type: functional
# PC-3 [4] = assay: Cytotoxicity against human PC3 cells at 10 uM after 48 hrs by sulforhodamine B assay relative to control; assay type: functional
# UO-31 = assay: Cytotoxicity against human UO31 cells at 10 uM after 48 hrs by sulforhodamine B assay relative to control; assay type: functional
# SN12C = assay: Cytotoxicity against human SN12C cells at 10 uM after 48 hrs by sulforhodamine B assay relative to control; assay type: functional
# RXF 393 = assay: Cytotoxicity against human RXF393 cells at 10 uM after 48 hrs by sulforhodamine B assay relative to control; assay type: functional
# ACHN = assay: Cytotoxicity against human ACHN cells at 10 uM after 48 hrs by sulforhodamine B assay relative to control; assay type: functional
# A498 = assay: Cytotoxicity against human A498 cells at 10 uM after 48 hrs by sulforhodamine B assay relative to control; assay type: functional
# 786-0 = assay: Cytotoxicity against human 786-0 cells at 10 uM after 48 hrs by sulforhodamine B assay relative to control; assay type: functional
# SK-OV-3 = assay: Cytotoxicity against human SKOV3 cells at 10 uM after 48 hrs by sulforhodamine B assay relative to control; assay type: functional
# NCI/ADR-RES = assay: Cytotoxicity against human NCI/ADR-RES cells at 10 uM after 48 hrs by sulforhodamine B assay relative to control; assay type: functional
# OVCAR-8 = assay: Cytotoxicity against human OVCAR8 cells at 10 uM after 48 hrs by sulforhodamine B assay relative to control; assay type: functional
# OVCAR-5 = assay: Cytotoxicity against human OVCAR5 cells at 10 uM after 48 hrs by sulforhodamine B assay relative to control; assay type: functional
# OVCAR-3 = assay: Cytotoxicity against human OVCAR3 cells at 10 uM after 48 hrs by sulforhodamine B assay relative to control; assay type: functional
# IGROV-1 = assay: Cytotoxicity against human IGROV1 cells at 10 uM after 48 hrs by sulforhodamine B assay relative to control; assay type: functional
# UACC-62 = assay: Cytotoxicity against human UACC62 cells at 10 uM after 48 hrs by sulforhodamine B assay relative to control; assay type: functional
# UACC-257 = assay: Cytotoxicity against human UACC257 cells at 10 uM after 48 hrs by sulforhodamine B assay relative to control; assay type: functional
# SK-MEL-5 = assay: Cytotoxicity against human SK-MEL-5 cells at 10 uM after 48 hrs by sulforhodamine B assay relative to control; assay type: functional
# SK-MEL-28 = assay: Cytotoxicity against human SK-MEL-28 cells at 10 uM after 48 hrs by sulforhodamine B assay relative to control; assay type: functional
# SK-MEL-2 = assay: Cytotoxicity against human SK-MEL-2 cells at 10 uM after 48 hrs by sulforhodamine B assay relative to control; assay type: functional
# MDA-MB-435 = assay: Cytotoxicity against human MDA-MB-435 cells at 10 uM after 48 hrs by sulforhodamine B assay relative to control; assay type: functional
# M14 = assay: Cytotoxicity against human M14 cells at 10 uM after 48 hrs by sulforhodamine B assay relative to control; assay type: functional
# Malme-3M = assay: Cytotoxicity against human MALME-3M cells at 10 uM after 48 hrs by sulforhodamine B assay relative to control; assay type: functional
# LOX IMVI = assay: Cytotoxicity against human LOXIMVI cells at 10 uM after 48 hrs by sulforhodamine B assay relative to control; assay type: functional
# SNB-75 = assay: Cytotoxicity against human SNB75 cells at 10 uM after 48 hrs by sulforhodamine B assay relative to control; assay type: functional
# U-251 = assay: Cytotoxicity against human U251 cells at 10 uM after 48 hrs by sulforhodamine B assay relative to control; assay type: functional
# SF-539 = assay: Cytotoxicity against human SF539 cells at 10 uM after 48 hrs by sulforhodamine B assay relative to control; assay type: functional
# SNB-19 = assay: Cytotoxicity against human SNB19 cells at 10 uM after 48 hrs by sulforhodamine B assay relative to control; assay type: functional
# SF-295 = assay: Cytotoxicity against human SF295 cells at 10 uM after 48 hrs by sulforhodamine B assay relative to control; assay type: functional
# SF-268 = assay: Cytotoxicity against human SF268 cells at 10 uM after 48 hrs by sulforhodamine B assay relative to control; assay type: functional
# SW-620 = assay: Cytotoxicity against human SW620 cells at 10 uM after 48 hrs by sulforhodamine B assay relative to control; assay type: functional
# KM12 = assay: Cytotoxicity against human KM12 cells at 10 uM after 48 hrs by sulforhodamine B assay relative to control; assay type: functional
# HT-29 = assay: Cytotoxicity against human HT-29 cells at 10 uM after 48 hrs by sulforhodamine B assay relative to control; assay type: functional
# HCT-15 = assay: Cytotoxicity against human HCT15 cells at 10 uM after 48 hrs by sulforhodamine B assay relative to control; assay type: functional
# HCT-116 = assay: Cytotoxicity against human HCT116 cells at 10 uM after 48 hrs by sulforhodamine B assay relative to control; assay type: functional
# HCC 2998 = assay: Cytotoxicity against human HCC2998 cells at 10 uM after 48 hrs by sulforhodamine B assay relative to control; assay type: functional
# COLO 205 = assay: Cytotoxicity against human COLO205 cells at 10 uM after 48 hrs by sulforhodamine B assay relative to control; assay type: functional
# NCI-H522 = assay: Cytotoxicity against human NCI-H522 cells at 10 uM after 48 hrs by sulforhodamine B assay relative to control; assay type: functional
# NCI-H460 = assay: Cytotoxicity against human NCI-H460 cells at 10 uM after 48 hrs by sulforhodamine B assay relative to control; assay type: functional
# NCI-H322M = assay: Cytotoxicity against human NCI-H322M cells at 10 uM after 48 hrs by sulforhodamine B assay relative to control; assay type: functional
# NCI-H23 = assay: Cytotoxicity against human NCI-H23 cells at 10 uM after 48 hrs by sulforhodamine B assay relative to control; assay type: functional
# NCI-H226 = assay: Cytotoxicity against human NCI-H226 cells at 10 uM after 48 hrs by sulforhodamine B assay relative to control; assay type: functional
# HOP-92 = assay: Cytotoxicity against human HOP92 cells at 10 uM after 48 hrs by sulforhodamine B assay relative to control; assay type: functional
# HOP-62 = assay: Cytotoxicity against human HOP62 cells at 10 uM after 48 hrs by sulforhodamine B assay relative to control; assay type: functional
# A549 = assay: Cytotoxicity against human A549 cells at 10 uM after 48 hrs by sulforhodamine B assay relative to control; assay type: functional
# RPMI-8226 = assay: Cytotoxicity against human RPMI8226 cells at 10 uM after 48 hrs by sulforhodamine B assay relative to control; assay type: functional
# MOLT-4 = assay: Cytotoxicity against human MOLT4 cells at 10 uM after 48 hrs by sulforhodamine B assay relative to control; assay type: functional
# K562 = assay: Cytotoxicity against human K562 cells at 10 uM after 48 hrs by sulforhodamine B assay relative to control; assay type: functional
# HL-60(TB) = assay: Cytotoxicity against human HL-60(TB) cells at 10 uM after 48 hrs by sulforhodamine B assay relative to control; assay type: functional
# CCRF-CEM = assay: Cytotoxicity against human CCRF-CEM cells at 10 uM after 48 hrs by sulforhodamine B assay relative to control; assay type: functional
# PC-3 [5] = assay: Cytotoxicity against human PC3 cells after 48 hrs by sulforhodamine B assay; assay type: functional, cell-based; details: PC-3, 48 h
# Sequence of DNA topoisomerase 1 (Homo sapiens) (P11387 whole entry): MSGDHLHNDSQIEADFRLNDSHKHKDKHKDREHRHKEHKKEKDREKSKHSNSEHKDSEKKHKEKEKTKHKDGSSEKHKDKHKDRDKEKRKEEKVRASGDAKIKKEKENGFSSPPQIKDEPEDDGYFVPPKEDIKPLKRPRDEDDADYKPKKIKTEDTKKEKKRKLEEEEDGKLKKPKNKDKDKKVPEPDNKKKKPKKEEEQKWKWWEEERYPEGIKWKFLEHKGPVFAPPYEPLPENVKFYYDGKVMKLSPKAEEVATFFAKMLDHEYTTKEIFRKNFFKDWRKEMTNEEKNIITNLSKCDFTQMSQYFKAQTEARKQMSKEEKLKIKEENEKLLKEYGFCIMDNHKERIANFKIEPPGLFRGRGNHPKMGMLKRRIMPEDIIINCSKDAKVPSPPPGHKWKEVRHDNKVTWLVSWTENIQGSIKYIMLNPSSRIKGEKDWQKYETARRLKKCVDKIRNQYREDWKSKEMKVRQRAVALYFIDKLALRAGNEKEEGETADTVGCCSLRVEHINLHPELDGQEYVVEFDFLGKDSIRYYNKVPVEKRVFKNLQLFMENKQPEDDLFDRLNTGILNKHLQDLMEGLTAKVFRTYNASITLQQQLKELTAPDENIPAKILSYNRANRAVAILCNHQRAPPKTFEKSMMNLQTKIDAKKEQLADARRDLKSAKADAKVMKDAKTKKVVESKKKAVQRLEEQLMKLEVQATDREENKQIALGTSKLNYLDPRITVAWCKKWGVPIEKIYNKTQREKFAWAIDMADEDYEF
compound,measurement,setting,value
CN(C)CC(=O)Nc1ccc2c(c1)C(=O)c1cc(NC(=O)CN(C)C)ccc1C2=O,inhibition,[1],Active
same,GI50,[2],2090 nM
CCN(CC)CCC(=O)Nc1ccc2c(c1)C(=O)c1cc(NC(=O)CCN(CC)CC)ccc1C2=O,GI50,[2],2570 nM
CCSCCC(=O)Nc1ccc2c(c1)C(=O)c1cc(NC(=O)CCSCC)ccc1-2,inhibition,Homo sapiens,inactive
same,Activity,CAKI-1,108.37%
same,Activity,MDA-MB-468,109.99%
same,Activity,T47D,103.44%
same,Activity,BT-549,97.04%
same,Activity,[3],109.39%
same,Activity,MDA-MB-231,118.39%
same,Activity,MCF7,94.51%
same,Activity,DU-145,112.53%
same,Activity,PC-3 [4],100%
same,Activity,UO-31,92.9%
same,Activity,SN12C,102.91%
same,Activity,RXF 393,105.75%
same,Activity,ACHN,112.08%
same,Activity,A498,124.53%
same,Activity,786-0,96.11%
same,Activity,SK-OV-3,110.74%
same,Activity,NCI/ADR-RES,103.59%
same,Activity,OVCAR-8,94.28%
same,Activity,OVCAR-5,109.71%
same,Activity,OVCAR-3,123.89%
same,Activity,IGROV-1,122.92%
same,Activity,UACC-62,107.97%
same,Activity,UACC-257,113.41%
same,Activity,SK-MEL-5,108.49%
same,Activity,SK-MEL-28,103.35%
same,Activity,SK-MEL-2,117.38%
same,Activity,MDA-MB-435,112.56%
same,Activity,M14,101.8%
same,Activity,Malme-3M,125.15%
same,Activity,LOX IMVI,69.5%
same,Activity,SNB-75,92.1%
same,Activity,U-251,102.62%
same,Activity,SF-539,86.16%
same,Activity,SNB-19,106.91%
same,Activity,SF-295,85.58%
same,Activity,SF-268,122.03%
same,Activity,SW-620,116.5%
same,Activity,KM12,117.91%
same,Activity,HT-29,92.74%
same,Activity,HCT-15,104.94%
same,Activity,HCT-116,100.1%
same,Activity,HCC 2998,107.5%
same,Activity,COLO 205,118.9%
same,Activity,NCI-H522,90.06%
same,Activity,NCI-H460,108.3%
same,Activity,NCI-H322M,117.16%
same,Activity,NCI-H23,100.62%
same,Activity,NCI-H226,104.85%
same,Activity,HOP-92,103.43%
same,Activity,HOP-62,119.93%
same,Activity,A549,106.07%
same,Activity,RPMI-8226,103.94%
same,Activity,MOLT-4,102.08%
same,Activity,K562,102.87%
same,Activity,HL-60(TB),109.4%
same,Activity,CCRF-CEM,96.61%
same,IC50,PC-3 [5],> 30000 nM

# — ChEMBL document CHEMBL2439971, “Design, synthesis and antiproliferative evaluation of fluorenone analogs with DNA topoisomerase I inhibitory properties” (Bioorg Med Chem, 2013)
